Measurements from the supplement of paper PMC10307832.

Assays:
Experiment in all cases: relative viability (nuclei count vs DMSO), 5 days (fraction); higher = more cells survive
[1] = compound: C[C@@H](N)c1ccc(C(=O)Nc2ccnc3[nH]ccc23)cc1 + N=C(N)NC(=N)NCCc1ccccc1 [Phenformin] (partner 250 µM)
Method in brief: (§1)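 Values are medians from duplicate plates. Each reflects relative viability, defined as the nuclei count of treated wells over that of vehicle wells. Lung cancer cell lines in 1536-well plates were pin-tool dosed one day after seeding with one drug alone or with a fixed anchor-drug dose plus five library-drug doses (not always all listed) in √10 steps, then fixed, stained and imaged at 4× after 5 days.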

[2] = compound: C[C@@H](N)c1ccc(C(=O)Nc2ccnc3[nH]ccc23)cc1 + O=C(c1cc(Cc2n[nH]c(=O)c3ccccc23)ccc1F)N1CCN(C(=O)C2CC2)CC1 [Olaparib] (partner 8 µM)
Method in brief: as §1

[3] = compound: C1CNCCC1C2=CC(=NN2)C3=CC=NC=C3 + CC(=O)c1c(C)c2cnc(Nc3ccc(N4CCNCC4)cn3)nc2n(C2CCCC2)c1=O [Palbociclib] (partner 0.5 µM)
Method in brief: as §1

Tanzisertib + Phenformin = compound: O[C@H]1CC[C@H](Nc2ncc3nc(Nc4c(F)cc(F)cc4F)n([C@H]4CCOC4)c3n2)CC1 [Tanzisertib] + N=C(N)NC(=N)NCCc1ccccc1 [Phenformin] (partner 250 µM)
Method in brief: as §1

Cell Line	relative viability ([1]; first compound 0.04 µM)	relative viability ([1]; first compound 0.1265 µM)	relative viability ([1]; first compound 0.4 µM)	relative viability ([1]; first compound 4 µM)	relative viability ([2]; first compound 0.04 µM)	relative viability ([2]; first compound 0.1265 µM)	relative viability ([2]; first compound 0.4 µM)	relative viability ([2]; first compound 1.265 µM)	relative viability ([2]; first compound 4 µM)	relative viability ([3]; first compound 0.08 µM)	relative viability ([3]; first compound 0.8 µM)	relative viability ([3]; first compound 2.53 µM)	relative viability ([3]; first compound 8 µM)	relative viability (Tanzisertib + Phenformin; first compound 0.08 µM)	relative viability (Tanzisertib + Phenformin; first compound 0.253 µM)	relative viability (Tanzisertib + Phenformin; first compound 0.8 µM)	relative viability (Tanzisertib + Phenformin; first compound 2.53 µM)	relative viability (Tanzisertib + Phenformin; first compound 8 µM)	relative viability ([1]; first compound 1.265 µM)
NCI-H441	0.879	0.995	0.879	0.74	0.544	0.505	0.539	0.562	0.35	0.227	0.222	0.251	0.22	1.12	0.723	0.725	0.853	0.817	–
LCLC-103H	0.284	0.351	0.329	0.308	0.8	0.748	0.769	0.827	0.628	0.45	0.407	0.485	0.481	0.375	0.327	0.309	0.345	0.343	0.268
HCC-78	1.05	0.818	0.855	0.797	1.05	0.964	1.16	1.4	1.08	0.503	0.429	0.472	0.479	0.739	0.848	0.782	0.597	0.512	0.797
NCI-H1915	0.289	0.37	0.38	0.319	–	0.229	0.26	–	0.216	0.502	0.521	0.493	0.529	0.4	0.355	0.364	0.365	0.291	–
